Measured values reported in patent publication US20030181527A1, “Novel formulations of alpha-2,4-disulfophenyl-n-tert-butylnitrone” (priority 2000, published 2003).

Columns and labels:
Assay type in all cases: physicochemical
[1] = Effect of chelator resin Chelex-100 on stability of concentrated aqueous solution; conditions: 100 mg/ml, 5.3 mM phosphate, pH 8.0
Description: A concentrated aqueous solution of α-(2,4-disulfophenyl)-N-tert-butylnitrone disodium salt (100 mg/ml) and disodium hydrogen phosphate (5.3 mM) at pH 8.0 was passed overnight through a column of the chelator resin, Chelex-100®. The resulting solution was placed in portions (8 ml) into 10 ml glass vials which were then sealed. The starting level of the aldehyde (II) was 0.20%. After two months at +40° C. and 75% relative humidity the concentration of the aldehyde (II) had increased to 2.3%. In a control experiment where the treatment with the resin was omitted, the level of the aldehyde (II) increased to 3.0%.

[2] = Stability after purging with different air/nitrogen gas mixtures; conditions: 400 mg/ml, pH 8.5; for Final Amount of Aldehyde (II) / Final Amount of Related Substances: 2 months +40° C./75% RH
Description: A concentrated aqueous solution of α-(2,4-disulfophenyl)-N-tert-butylnitrone disodium salt (400 mg/ml) and disodium hydrogen phosphate (5.3 mM) at pH 8.5 was purged with different levels of air/nitrogen gas mixtures. The solutions were stored in sealed 10 ml glass vials with a fill volume of 7 ml. The samples were stored for two months at +40° C. and 75% relative humidity.

[3] = Stability versus concentration, vial size and headspace gas at +40° C. (Table 6)
Description: For the 10 ml vial size, the fill volume was 10.7 ml; and for the 20 ml vial size, the fill volume was 20.7 ml.

[4] = Effect of pH on stability of diluted 4 mg/ml solutions at room temperature
Excerpt: The pH dependent degradation of aqueous solutions of α-(2,4-disulfophenyl)-N-tert-butylnitrone disodium salt has been extensively studied. […] Both solutions, which were obtained by appropriate dilution of a corresponding concentrate, were stored at room temperature under conditions that would reasonably simulate a diluted concentrate prepared ready for administration to patients.

[5] = Effect on pH and stability of dilution of aqueous concentrates in 0.9% sodium chloride; conditions: 400 mg/ml concentrate, 7 ml diluted in 500 ml 0.9% NaCl, room temperature
Description: Three batches of an aqueous concentrate of α-(2,4-disulfophenyl)-N-tert-butylnitrone disodium salt (400 mg/ml) were prepared and adjusted to pH 8.5. One concentrate was unbuffered and the other two concentrates were buffered with respectively 2.6 or 26 mM disodium hydrogen phosphate. In each case a 7 ml portion of the concentrate was transferred into 0.9% sodium chloride solution (500 ml) contained in a PVC bag. The bags were the stored at room temperature, protected from light, for 48 hours. Samples were taken out at 0, 24 and 48 hours and analysed.

[6] = Shelf life of the preferred concentrate formulation; conditions: 400 mg/ml, 5 to 50 mM disodium hydrogen phosphate, pH 8.5, nitrogen purged, sealed 20 ml vials
[7] = 4 mg/ml buffered with phosphate (0.53 mM), 0 days
[8] = 4 mg/ml buffered with phosphate (0.53 mM), 1 day
[9] = 4 mg/ml buffered with phosphate (0.53 mM), 2 days
[10] = 4 mg/ml buffered with phosphate (0.53 mM), 5 days
[11] = 4 mg/ml buffered with phosphate (0.53 mM), 7 days
[12] = 4 mg/ml unbuffered solution, 0 days
[13] = 4 mg/ml unbuffered solution, 1 day
[14] = 4 mg/ml unbuffered solution, 2 days
[15] = 4 mg/ml unbuffered solution, 5 days
[16] = 4 mg/ml unbuffered solution, 7 days

In the case of `CC(C)(C)[N+]([O-])=Cc1ccc(S(=O)(=O)[O-])cc1S(=O)(=O)[O-].[Na+].[Na+]` [α-(2,4-disulfophenyl)-N-tert-butylnitrone disodium salt], the “Concentration of the aldehyde (II)” value ([1]; Chelex-100 treated, 2 months +40° C./75% RH) is reported as 2.3%, the “Starting level of the aldehyde (II)” value ([1]; Chelex-100 treated, start) is reported as 0.20% and the “Level of the aldehyde (II)” value ([1]; resin treatment omitted, 2 months +40° C./75% RH) is reported as 3.0%. The “Initial aldehyde (II)” value ([2]; 5.3 mM phosphate, initial) was 0.25 area %, the Initial related substances ([2]; 5.3 mM phosphate, initial) was 0.56 area % and the “Final Amount of Aldehyde (II)” value ([2]; 0% air in purge gas) was 0.57 area %. For the same compound, the “Final Amount of Related Substances” value ([2]; 0% air in purge gas) was 1.3 area %, the “Final Amount of Aldehyde (II)” value ([2]; 6.25% air in purge gas) was 0.68 ± 0.08 (n = 2) area % and the “Final Amount of Related Substances” value ([2]; 6.25% air in purge gas) was 1.5 ± 0.1 (n = 2) area %. For the same compound, the “Final Amount of Aldehyde (II)” value ([2]; 12.5% air in purge gas) was 0.63 ± 0.01 (n = 2) area %, the “Final Amount of Related Substances” value ([2]; 12.5% air in purge gas) was 1.4 area % and the “Final Amount of Aldehyde (II)” value ([2]; 25% air in purge gas) was 0.77 area %. The “Final Amount of Related Substances” value ([2]; 25% air in purge gas) was 1.6 area %, the “Final Amount of Aldehyde (II)” value ([2]; 50% air in purge gas) was 0.93 area % and the “Final Amount of Related Substances” value ([2]; 50% air in purge gas) was 1.9 area %. For the same compound, the “Final Amount of Aldehyde (II)” value ([2]; 100% air in purge gas) was 1.27 area %, the “Final Amount of Related Substances” value ([2]; 100% air in purge gas) was 2.4 area % and the “Amount of Aldehyde (II)” value ([3]; 50 mg/ml, 10 ml vial, N2 in headspace, 2 months at +40° C.) was 1.4 w/w %. For the same compound, the “Amount of Aldehyde (II)” value ([3]; 50 mg/ml, 10 ml vial, N2 in headspace, 3 months at +40° C.) was 1.5 w/w %, the “Amount of Aldehyde (II)” value ([3]; 50 mg/ml, 10 ml vial, N2 in headspace, 6 months at +40° C.) was 1.7 w/w % and the “Amount of Aldehyde (II)” value ([3]; 50 mg/ml, 10 ml vial, N2 in headspace, initial) was 0.2 w/w %. The “Amount of Aldehyde (II)” value ([3]; 50 mg/ml, 10 ml vial, air in headspace, 2 months at +40° C.) was 2.8 w/w %, the “Amount of Aldehyde (II)” value ([3]; 50 mg/ml, 10 ml vial, air in headspace, 3 months at +40° C.) was 3.3 w/w % and the “Amount of Aldehyde (II)” value ([3]; 50 mg/ml, 10 ml vial, air in headspace, 6 months at +40° C.) was 3.5 w/w %. For the same compound, the “Amount of Aldehyde (II)” value ([3]; 50 mg/ml, 10 ml vial, air in headspace, initial) was 0.2 w/w %, the “Amount of Aldehyde (II)” value ([3]; 100 mg/ml, 10 ml vial, air in headspace, 2 months at +40° C.) was 1.8 w/w % and the “Amount of Aldehyde (II)” value ([3]; 100 mg/ml, 10 ml vial, air in headspace, initial) was 0.2 w/w %. The “Amount of Aldehyde (II)” value ([3]; 400 mg/ml, 10 ml vial, N2 in headspace, 2 months at +40° C.) was 0.5 w/w %, the “Amount of Aldehyde (II)” value ([3]; 400 mg/ml, 10 ml vial, N2 in headspace, 3 months at +40° C.) was 0.6 w/w % and the “Amount of Aldehyde (II)” value ([3]; 400 mg/ml, 10 ml vial, N2 in headspace, initial) was 0.3 w/w %. For the same compound, the “Amount of Aldehyde (II)” value ([3]; 400 mg/ml, 10 ml vial, air in headspace, 2 months at +40° C.) was 0.8 w/w %, the “Amount of Aldehyde (II)” value ([3]; 400 mg/ml, 10 ml vial, air in headspace, 3 months at +40° C.) was 0.9 w/w % and the “Amount of Aldehyde (II)” value ([3]; 400 mg/ml, 10 ml vial, air in headspace, initial) was 0.3 w/w %. The “Amount of Aldehyde (II)” value ([3]; 400 mg/ml, 20 ml vial, N2 in headspace, 2 months at +40° C.) was 0.5 w/w %, the “Amount of Aldehyde (II)” value ([3]; 400 mg/ml, 20 ml vial, N2 in headspace, 3 months at +40° C.) was 0.5 w/w % and the “Amount of Aldehyde (II)” value ([3]; 400 mg/ml, 20 ml vial, N2 in headspace, initial) was 0.3 w/w %. For the same compound, the “Amount of Aldehyde (II)” value ([3]; 400 mg/ml, 20 ml vial, air in headspace, 2 months at +40° C.) was 0.7 w/w %, the “Amount of Aldehyde (II)” value ([3]; 400 mg/ml, 20 ml vial, air in headspace, 3 months at +40° C.) was 0.8 w/w % and the “Amount of Aldehyde (II)” value ([3]; 400 mg/ml, 20 ml vial, air in headspace, initial) was 0.3 w/w %. For the same compound, the “Amount of Aldehyde (II)” value [4, 7] was 0.8 Area %, the pH [4, 7] was 8.0 and the “Amount of Aldehyde (II)” value [4, 8] was 0.9 Area %. For the same compound, the pH [4, 8] was 7.9, the “Amount of Aldehyde (II)” value [4, 9] was 0.9 Area % and the pH [4, 9] was 7.7. For the same compound, the “Amount of Aldehyde (II)” value [4, 10] was 1.0 Area %, the pH [4, 10] was 7.5 and the “Amount of Aldehyde (II)” value [4, 11] was 1.1 Area %. For the same compound, the pH [4, 11] was 7.5, the “Amount of Aldehyde (II)” value [4, 12] was 0.9 Area % and the pH [4, 12] was 6.8. For the same compound, the “Amount of Aldehyde (II)” value [4, 13] was 1.1 Area %, the pH [4, 13] was 6.8 and the “Amount of Aldehyde (II)” value [4, 14] was 1.2 Area %. For the same compound, the pH [4, 14] was 6.8, the “Amount of Aldehyde (II)” value [4, 15] was 1.6 Area % and the pH [4, 15] was 6.8. The “Amount of Aldehyde (II)” value [4, 16] was 2.0 Area %, the pH [4, 16] was 6.7 and the “Amount of Aldehyde (II)” value ([5]; 2.6 mM phosphate, 0 hours) was 0.30 Area %. For the same compound, the pH ([5]; 2.6 mM phosphate, 0 hours) was 6.50, the “Amount of Aldehyde (II)” value ([5]; 2.6 mM phosphate, 24 hours) was 0.44 Area % and the pH ([5]; 2.6 mM phosphate, 24 hours) was 6.69. The “Amount of Aldehyde (II)” value ([5]; 2.6 mM phosphate, 48 hours) was 0.57 Area %, the pH ([5]; 2.6 mM phosphate, 48 hours) was 6.67 and the “Amount of Aldehyde (II)” value ([5]; 26 mM phosphate, 0 hours) was 0.17 Area %. The pH ([5]; 26 mM phosphate, 0 hours) was 7.43, the “Amount of Aldehyde (II)” value ([5]; 26 mM phosphate, 24 hours) was 0.20 Area % and the pH ([5]; 26 mM phosphate, 24 hours) was 7.39. The “Amount of Aldehyde (II)” value ([5]; 26 mM phosphate, 48 hours) was 0.25 Area %, the pH ([5]; 26 mM phosphate, 48 hours) was 7.38 and the “Amount of Aldehyde (II)” value ([5]; no buffer, 0 hours) was 0.25 Area %. The pH ([5]; no buffer, 0 hours) was 6.01, the “Amount of Aldehyde (II)” value ([5]; no buffer, 24 hours) was 0.68 Area % and the pH ([5]; no buffer, 24 hours) was 6.32. The “Amount of Aldehyde (II)” value ([5]; no buffer, 48 hours) was 0.89 Area %, the pH ([5]; no buffer, 48 hours) was 6.48 and the “Remains in useable condition” value ([6]; stored at room temperature) was “at least 6 months”. For the same compound, the Shelf life ([6]; stored refrigerated (approximately 2 to 8° C.)) was “at least 24 months”.
